12 compounds from patent US20220168427A1 (Ranok Therapeutics (Hangzhou) Co. Ltd., priority 2019, published 2022) can be followed below.

Data set [1] deals with HSP90α (Homo sapiens, UniProt P07900). The experiment in a line: HSP90α Binding Fluorescent Polarization (FP) Assay. The note with it: competition with FITC-geldanamycin; read-out: HSP90 Binding Potency. Here is the method:
HSP90α Binding Fluorescent Polarization (FP) Assay
A master mix was prepared with assay buffer, BSA and FITC-geldanamycin. In a 96-well plate, a serial 3-fold dilution of each compound was prepared ranging from 40 μM down until 2.0 nM. Also in a 96-well plate, recombinant HSP90α protein was diluted to 28 μg/ml. Then, in a 384-well plate, 10 μl of master mix and 5 μl of compound dilution were added per well to duplicate wells and mixed by brief shaking. Then 5 μl of diluted HSP90α protein was added per well, mixed by brief shaking, incubated at 25° C. for 30, 60 and 120 min and fluorescence was measured on an EnVision Plate Reader. Background-subtracted mP values were calculated from EnVision raw data and a four-parameter “log[inhibitor] vs. response” curve was fitted using GraphPad Prism 7.0.

The target of data set [2] is T1, BRD4 (BD1+BD2) (Homo sapiens, UniProt O60885).
T1 construct: 1.8 μg/ml recombinant BRD4 (BD1+BD2 domains) protein
The conditions noted are these: read-out: BRD4 Binding Potency. The method, then: A master mix was prepared with assay buffer, 1.8 μg/ml recombinant BRD4 (BD1+BD2 domains) protein, and 200-fold dilutions of Tb-labeled donor and dye-labeled acceptor. 40-fold dilutions of acetylated and non-acetylated ligands were prepared in 1×BRD TR-FRET assay buffer. Also, a serial 3-fold dilution of each compound was prepared ranging from 40 μM down until 2.0 nM. In a 384-well plate, 5 μl diluted ligand and 5 μl of compound dilution were added per well to duplicate wells and mixed by brief shaking. Then 10 μl of master mix was added per well, mixed by brief shaking, incubated at 25° C. for 2 hr and fluorescence was measured on an EnVision Plate Reader. The 665 nm/615 nm ratio was calculated from EnVision raw data. Data were normalized using whole-plate averages of “positive” and “negative” readings. A four-parameter “log[inhibitor] vs. response” curve was fitted using GraphPad Prism 7.0.

In data set [3] the test system is MV4-11 cells. Put plainly: MV4-11 Cell Cytotoxicity Assay. It is filed as cell-based, human. The conditions noted are these: human, MV4-11 cells, CCK-8. The text has this: % Inhibition=100−(D−B)/(S−B)*100%.
S: The absorbance of the maximum (cells with DMSO)
B: The absorbance of the minimum (medium with DMSO)

Counter-ions that a name gives are not always drawn.

`Cc1sc2c(c1C)C(c1ccc(Cl)cc1)=NC(CC(=O)N[C@H](C)c1ccc(CN3CCN(Cc4ccc(-n5c(O)nnc5-c5cc(C(C)C)c(O)cc5O)cc4)CC3)cc1)c1nnc(C)n1-2` (stereo in doubt) [Compound 70, 2-((6S)-4-(4-chlorophenyl)-2,3,9-trimethyl-6H-thieno[3,2-f][1,2,4]triazolo[4,3-a][1,4]diazepin-6-yl)-N—((R)-1-(4-((4-(4-(3-(2,4-dihydroxy-5-isopropylphenyl)-5-hydroxy-4H-1,2,4-triazol-4-yl)benzyl)piperazin-1-yl)methyl)phenyl)ethyl)acetamide, trifluoroacetic acid]: the IC50 in data set [1] and in data set [2] was 100 to 1000 nM throughout. For the same compound, in data set [3], the IC50 at 72 h is less than 100 nM.
Consider `Cc1sc2c(c1C)C(c1ccc(Cl)cc1)=N[C@@H](CC(=O)NC(C)c1ccc(CN3CCC(Cc4ccc(-n5c(O)nnc5-c5cc(C(C)C)c(O)cc5O)cc4)CC3)cc1)c1nnc(C)n1-2` (stereo in doubt) [Compound 82, 2-((S)-4-(4-chlorophenyl)-2,3,9-trimethyl-6H-thieno[3,2-f][1,2,4]triazolo[4,3-a][1,4]diazepin-6-yl)-N—((R)-1-(4-((4-(4-(3-(2,4-dihydroxy-5-isopropylphenyl)-5-hydroxy-4H-1,2,4-triazol-4-yl)benzyl)piperidin-1-yl)methyl)phenyl)ethyl)acetamide hydrochloride], for which the IC50 in data set [2] was less than 100 nM. In addition, in data set [3], the IC50 at 72 h was less than 100 nM.
As for `Cc1sc2c(c1C)C(c1ccc(Cl)cc1)=NC(CC(=O)N1CCC(Cc3ccc(CN(C)Cc4ccc(-n5c(C(=O)NCC(F)(F)F)nnc5-c5cc(C(C)C)c(O)cc5O)cc4)cc3)CC1)c1nnc(C)n1-2` (stereo in doubt) [Compound 84, (S)-4-(4-(((4-((1-(2-(4-(4-chlorophenyl)-2,3,9-trimethyl-6H-thieno[3,2-f][1,2,4]triazolo[4,3-a][1,4]diazepin-6-yl)acetyl)piperidin-4-yl)methyl)benzyl)(methyl)amino)methyl)phenyl)-5-(2,4-dihydroxy-5-isopropylphenyl)-N-(2,2,2-trifluoroethyl)-4H-1,2,4-triazole-3-carboxamide, trifluoroacetic acid], the values for the IC50 in data set [1] and in data set [2] were 100 to 1000 nM and greater than 1000 nM, respectively. Moreover, the IC50 at 72 h in data set [3] is less than 100 nM.
In the case of `Cc1sc2c(c1C)C(c1ccc(Cl)cc1)=N[C@@H](CC(=O)NCCOCCN[C@@H](C)C(=O)NC(C(=O)N1CCC[C@H]1C(=O)Nc1snnc1-c1ccccc1)C1CCCCC1)c1nnc(C)n1-2` (stereo in doubt) [Compound 127, (S)-1-((2S,5S)-14-((S)-4-(4-chlorophenyl)-2,3,9-trimethyl-6H-thieno[3,2-f][1,2,4]triazolo[4,3-a][1,4]diazepin-6-yl)-2-cyclohexyl-5-methyl-4,13-dioxo-9-oxa-3,6,12-triazatetradecanoyl)-N-(4-phenyl-1,2,3-thiadiazol-5-yl)pyrrolidine-2-carboxamide], the IC50 in data set [1] was greater than 1000 nM; in data set [2], 100 to 1000 nM. In data set [3], the IC50 at 72 h lay in the range of 100 to 1000 nM.
Consider `CCc1cc(-c2nnc(O)n2-c2ccc(CN3CCN(CC4CCN(C(=O)C[C@@H]5N=C(c6ccc(Cl)cc6)c6c(sc(C)c6C)-n6c(C)nnc65)CC4)CC3)cc2)c(O)cc1O` [Compound 1, 2-((6S)-4-(4-chlorophenyl)-2,3,9-trimethyl-6H-thieno[3,2-f][1,2,4]triazolo[4,3-a][1,4]diazepin-6-yl)-1-(4-((4-(4-(3-(5-ethyl-2,4-dihydroxyphenyl)-5-hydroxy-4H-1,2,4-triazol-4-yl)benzyl)piperazin-1-yl)methyl)piperidin-1-yl)ethanone], for which the IC50 in data set [1] and in data set [2] was 100 to 1000 nM each time.
Consider `CCc1cc(-c2nnc(O)n2-c2ccc(CN3CCN(CC4CCN(CC[C@@H]5N=C(c6ccc(Cl)cc6)c6c(sc(C)c6C)-n6c(C)nnc65)CC4)CC3)cc2)c(O)cc1O` [Compound 2, 4-(4-(4-((4-((1-(2-((6S)-4-(4-chlorophenyl)-2,3,9-trimethyl-6H-thieno[3,2-f][1,2,4]triazolo[4,3-a][1,4]diazepin-6-yl)ethyl)piperidin-4-yl)methyl)piperazin-1-yl)methyl)phenyl)-5-hydroxy-4H-1,2,4-triazol-3-yl)-6-ethylbenzene-1,3-diol, trifluoroacetic acid], for which the IC50 in data set [1] is less than 100 nM; in data set [2] it was greater than 1000 nM. In data set [3], this compound returned an IC50 at 72 h of 100 to 1000 nM.
The like results for `Cc1sc2c(c1C)C(c1ccc(Cl)cc1)=N[C@@H](CC(=O)N1CCC(Cc3ccc(-n4c(O)nnc4-c4cc(C(C)C)c(O)cc4O)cc3)CC1)c1nnc(C)n1-2` [Compound 3, 2-((6S)-4-(4-chlorophenyl)-2,3,9-trimethyl-6H-thieno[3,2-f][1,2,4]triazolo[4,3-a][1,4]diazepin-6-yl)-1-(4-(4-(3-(2,4-dihydroxy-5-isopropylphenyl)-5-hydroxy-4H-1,2,4-triazol-4-yl)benzyl)piperidin-1-yl)ethanone, trifluoroacetic acid] were, in that order, 100 to 1000 nM, greater than 1000 nM and less than 100 nM.
In the same order, the values of `Cc1sc2c(c1C)C(c1ccc(Cl)cc1)=N[C@@H](CC(=O)N1CCC(CN3CCN(Cc4ccc(-n5c(O)nnc5-c5ccc(O)cc5O)cc4)CC3)CC1)c1nnc(C)n1-2` [Compound 4, 2-((6S)-4-(4-chlorophenyl)-2,3,9-trimethyl-6H-thieno[3,2-f][1,2,4]triazolo[4,3-a][1,4]diazepin-6-yl)-1-(4-((4-(4-(3-(2,4-dihydroxyphenyl)-5-hydroxy-4H-1,2,4-triazol-4-yl)benzyl)piperazin-1-yl)methyl)piperidin-1-yl)ethanone, trifluoroacetic acid] are greater than 1000 nM, less than 100 nM and 100 to 1000 nM.
As for `CCNC(=O)c1noc(-c2cc(C(C)C)c(O)cc2O)c1-c1ccc(CN2CCN(CC3CCN(C(=O)C[C@@H]4N=C(c5ccc(Cl)cc5)c5c(sc(C)c5C)-n5c(C)nnc54)CC3)CC2)cc1` [Compound 16, 4-(4-((4-((1-(2-((6S)-4-(4-chlorophenyl)-2,3,9-trimethyl-6H-thieno[3,2-f][1,2,4]triazolo[4,3-a][1,4]diazepin-6-yl)acetyl)piperidin-4-yl)methyl)piperazin-1-yl)methyl)phenyl)-5-(2,4-dihydroxy-5-isopropylphenyl)-N-ethylisoxazole-3-carboxamide, trifluoroacetic acid], the IC50 in data set [1] and in data set [2] was 100 to 1000 nM each time.
`Cc1sc2c(c1C)C(c1ccc(Cl)cc1)=N[C@@H](CC(=O)N1CCC(CN3CCN(Cc4ccc(-n5c(O)nnc5-c5cc(C(C)C)c(O)cc5O)cc4)CC3)CC1)c1nnc(C)n1-2` [Compound 40, 2-((6S)-4-(4-chlorophenyl)-2,3,9-trimethyl-6H-thieno[3,2-f][1,2,4]triazolo[4,3-a][1,4]diazepin-6-yl)-1-(4-((4-(4-(3-(2,4-dihydroxy-5-isopropylphenyl)-5-hydroxy-4H-1,2,4-triazol-4-yl)benzyl)piperazin-1-yl)methyl)piperidin-1-yl)ethanone, trifluoroacetic acid]: the figures for the IC50 in data set [1] and in data set [2] were less than 100 nM and 100 to 1000 nM, respectively.
Regarding `CCc1cc(-c2nnc(C(N)=O)n2-c2ccc(CN3CCN(CC4CCN(C(=O)C[C@@H]5N=C(c6ccc(Cl)cc6)c6c(sc(C)c6C)-n6c(C)nnc65)CC4)CC3)cc2)c(O)cc1O` [Compound 120, (S)-4-(4-((4-((1-(2-(4-(4-chlorophenyl)-2,3,9-trimethyl-6H-thieno[3,2-f][1,2,4]triazolo[4,3-a][1,4]diazepin-6-yl)acetyl)piperidin-4-yl)methyl)piperazin-1-yl)methyl)phenyl)-5-(5-ethyl-2,4-dihydroxyphenyl)-4H-1,2,4-triazole-3-carboxamide hydrochloride], the IC50 in data set [1] is 100 to 1000 nM; in data set [2] it was less than 100 nM.
The like results for `CCc1cc(-c2nnc(C(N)=O)n2-c2ccc(CN3CCN(CC4CCN(C(=O)C[C@@H]5N=C(c6ccc(Cl)cc6)c6c(sc(C)c6C)-n6c(C)nnc65)CC4)CC3)cc2)c(O)cc1O` [Compound 121, (S)-4-(4-((4-((1-(2-(4-(4-chlorophenyl)-2,3,9-trimethyl-6H-thieno[3,2-f][1,2,4]triazolo[4,3-a][1,4]diazepin-6-yl)acetyl)piperidin-4-yl)methyl)piperazin-1-yl)methyl)phenyl)-5-(5-ethyl-2,4-dihydroxyphenyl)-4H-1,2,4-triazole-3-carboxamide hydrochloride] were, in that order, less than 100 nM and greater than 1000 nM.
